From patent US12723063B2, “GIPR-agonist compounds” (Eli Lilly and Company, priority 2019, dated 2026)
*1 amine or outer side, *2 acyl side, *3 side chain or, on linkers, in order; H or OH if unused. Where a SMILES comes first, the peptide text is derived from it. Side-chain parts run from the residue outwards. [ ]: non-standard residue; d: D form. The star is where a group is joined. C20 diacid = O=C(O)CCCCCCCCCCCCCCCCCCC(=O)*; C18 diacid = O=C(O)CCCCCCCCCCCCCCCCC(=O)*; γGlu = O=C(O)[C@H](CCC(=O)[*:2])N[*:1]; 4Pal = N[C@@H](Cc1ccncc1)C(=O)O; αMeL = CC(C)C[C@](C)(N)C(=O)O; Orn = NCCC[C@H](N)C(=O)O; AEEA = NCCOCCOCC(=O)O; Aib = CC(C)(N)C(=O)O

Experiments:
human GcgR = biological target: T1, human GcgR (Homo sapiens, UniProt P47871); assay: [125I]-Glucagon binding, SPA with WGA beads, 0.1% bacitracin; conditions: geometric mean, read-out: hGcgR Ki
T1 construct: expressed in transfected cells; crude membranes
T1 sequence (P47871 26-477): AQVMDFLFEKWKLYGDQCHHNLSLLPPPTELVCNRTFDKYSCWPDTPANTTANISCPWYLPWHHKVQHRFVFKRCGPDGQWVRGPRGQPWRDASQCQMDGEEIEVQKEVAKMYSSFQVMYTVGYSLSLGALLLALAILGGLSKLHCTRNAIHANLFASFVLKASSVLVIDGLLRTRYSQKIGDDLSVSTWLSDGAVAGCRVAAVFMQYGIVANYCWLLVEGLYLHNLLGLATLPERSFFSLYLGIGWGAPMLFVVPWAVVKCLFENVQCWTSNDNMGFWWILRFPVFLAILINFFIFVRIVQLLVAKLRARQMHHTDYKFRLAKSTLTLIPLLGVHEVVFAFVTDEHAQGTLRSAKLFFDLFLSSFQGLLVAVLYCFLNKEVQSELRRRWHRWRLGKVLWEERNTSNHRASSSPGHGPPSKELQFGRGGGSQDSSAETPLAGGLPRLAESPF
Summary of the method: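 SPA competition binding with WGA beads on crude membranes from HEK293 cells stably expressing hGcgR. Buffer: 25 mM HEPES pH 7.4, 2.5 mM CaCl2, 1 mM MgCl2, 0.1% bacitracin, 0.003% Tween-20; 10-point 3-fold dilutions, NSB with 1 μM Gcg.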

human GIPR = biological target: T2, human GIPR (Homo sapiens, UniProt P48546); assay: [125I]-GIP binding, SPA with WGA beads, 0.1% bacitracin; conditions: geometric mean, read-out: hGIPR Ki
T2 construct: expressed in transfected cells; crude membranes
T2 sequence (P48546 22-466): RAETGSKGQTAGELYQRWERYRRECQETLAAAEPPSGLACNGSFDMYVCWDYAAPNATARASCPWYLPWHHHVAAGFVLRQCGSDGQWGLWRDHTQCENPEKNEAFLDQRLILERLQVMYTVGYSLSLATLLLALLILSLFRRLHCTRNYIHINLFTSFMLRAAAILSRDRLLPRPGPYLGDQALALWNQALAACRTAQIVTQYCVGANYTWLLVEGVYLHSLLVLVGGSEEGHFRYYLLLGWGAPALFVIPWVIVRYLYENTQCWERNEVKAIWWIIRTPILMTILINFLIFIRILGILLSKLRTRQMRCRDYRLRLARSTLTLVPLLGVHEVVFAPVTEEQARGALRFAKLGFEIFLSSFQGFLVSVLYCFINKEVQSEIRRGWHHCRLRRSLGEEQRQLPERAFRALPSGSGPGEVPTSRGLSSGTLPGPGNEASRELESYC
Summary of the method: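 Ki values are geometric means (SEM, n independent days), derived from four-parameter nonlinear regression of IC50. Membranes came from hGIPR-expressing CHO cells.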

Row | Structure (SMILES) | Ki (human GcgR) [nM] | Ki (human GIPR) [nM]
1 | CC[C@H](C)[C@H](NC(=O)[C@H](CO)NC(=O)[C@H](Cc1ccc(O)cc1)NC(=O)[C@H](CC(=O)O)NC(=O)[C@H](CO)NC(=O)[C@@H](NC(=O)[C@H](Cc1ccccc1)NC(=O)[C@@H](NC(=O)CNC(=O)[C@H](CCC(=O)O)NC(=O)[C@@H](C)NC(=O)[C@@H](N)Cc1ccc(O)cc1)[C@@H](C)O)[C@@H](C)CC)C(=O)N[C@@H](CC(C)C)C(=O)N[C@@H](CC(C)C)C(=O)N[C@@H](CC(=O)O)C(=O)N[C@@H](CCCCN)C(=O)N[C@@H](CCCCNC(=O)COCCOCCNC(=O)COCCOCCNC(=O)CC[C@H](NC(=O)CCCCCCCCCCCCCCCCC(=O)O)C(=O)O)C(=O)N[C@@H](C)C(=O)N[C@@H](CCC(N)=O)C(=O)NC(C)(C)C(=O)N[C@@H](CC(=O)O)C(=O)N[C@@H](Cc1ccccc1)C(=O)N[C@H](C(=O)N[C@@H](CC(N)=O)C(=O)N[C@@H](Cc1c[nH]c2ccccc12)C(=O)N[C@@H](CC(C)C)C(=O)N[C@@H](CC(C)C)C(=O)N[C@@H](CCC(=O)O)C(=O)N[C@@H](CCC(N)=O)C(=O)NCC(=O)N1CCC[C@H]1C(=O)N[C@@H](CO)C(=O)N[C@@H](CO)C(=O)NCC(=O)N[C@@H](C)C(=O)N1CCC[C@H]1C(=O)N1CCC[C@H]1C(=O)N1CCC[C@H]1C(=O)N[C@@H](CO)C(N)=O)C(C)C [Example 17] (H-Y[dA]EGTFISDYSILLDKK([AEEA-AEEA-γGlu-C18 diacid])AQ[Aib]DFVNWLLEQGPSSGAPPPS-NH2) | 274 | 0.0571
2 | CC[C@H](C)[C@H](NC(=O)[C@H](Cc1ccccc1)NC(=O)[C@@H](NC(=O)CNC(=O)[C@H](CCC(=O)O)NC(=O)C(C)(C)NC(=O)[C@@H](N)Cc1ccc(O)cc1)[C@@H](C)O)C(=O)N[C@@H](CO)C(=O)N[C@@H](CC(=O)O)C(=O)N[C@@H](Cc1ccc(O)cc1)C(=O)N[C@@H](CO)C(=O)N[C@H](C(=O)N[C@@](C)(CC(C)C)C(=O)N[C@@H](CC(C)C)C(=O)N[C@@H](CC(=O)O)C(=O)N[C@@H](CCCN)C(=O)N[C@@H](CCCCNC(=O)COCCOCCNC(=O)COCCOCCNC(=O)CC[C@H](NC(=O)CCCCCCCCCCCCCCCCCCC(=O)O)C(=O)O)C(=O)N[C@@H](Cc1c[nH]cn1)C(=O)N[C@@H](CCC(N)=O)C(=O)NC(C)(C)C(=O)N[C@@H](CC(=O)O)C(=O)N[C@@H](Cc1ccccc1)C(=O)N[C@H](C(=O)N[C@@H](CCC(=O)O)C(=O)N[C@@H](Cc1ccncc1)C(=O)N[C@@H](CC(C)C)C(=O)N[C@@H](CC(C)C)C(=O)N[C@@H](CCC(=O)O)C(=O)N[C@@H](CCC(N)=O)C(=O)NCC(=O)N1CCC[C@H]1C(=O)N[C@@H](CO)C(=O)N[C@@H](CO)C(=O)NCC(=O)N[C@@H](C)C(=O)N1CCC[C@H]1C(=O)N1CCC[C@H]1C(=O)N1CCC[C@H]1C(=O)N[C@@H](CO)C(N)=O)C(C)C)[C@@H](C)CC [Example 81] (H-Y[Aib]EGTFISDYSI[αMeL]LD[Orn]K([AEEA-AEEA-γGlu-C20 diacid])HQ[Aib]DFVE[4Pal]LLEQGPSSGAPPPS-NH2) | 699 | 0.0374
3 | CC[C@H](C)[C@H](NC(=O)[C@H](CCCN)NC(=O)[C@H](CC(=O)O)NC(=O)[C@H](CC(C)C)NC(=O)[C@](C)(CC(C)C)NC(=O)[C@@H](NC(=O)[C@H](CO)NC(=O)[C@H](Cc1ccc(O)cc1)NC(=O)[C@H](CC(=O)O)NC(=O)[C@H](CO)NC(=O)[C@@H](NC(=O)[C@H](Cc1ccccc1)NC(=O)[C@@H](NC(=O)CNC(=O)[C@H](CCC(=O)O)NC(=O)C(C)(C)NC(=O)[C@@H](N)Cc1ccc(O)cc1)[C@@H](C)O)[C@@H](C)CC)[C@@H](C)CC)C(=O)N[C@@H](Cc1c[nH]cn1)C(=O)N[C@@H](CCC(N)=O)C(=O)NC(C)(C)C(=O)N[C@@H](CCC(=O)O)C(=O)N[C@@H](Cc1ccccc1)C(=O)N[C@H](C(=O)N[C@H](CCC(=O)O)C(=O)N[C@@H](Cc1ccc(O)cc1)C(=O)N[C@@H](CCCCNC(=O)COCCOCCNC(=O)COCCOCCNC(=O)CC[C@H](NC(=O)CCCCCCCCCCCCCCCCC(=O)O)C(=O)O)C(=O)N[C@@H](CC(C)C)C(=O)N[C@@H](CCC(=O)O)C(=O)NCC(=O)NCC(=O)N1CCC[C@H]1C(=O)N[C@@H](CO)C(=O)N[C@@H](CO)C(=O)NCC(=O)N[C@@H](C)C(=O)N1CCC[C@H]1C(=O)N1CCC[C@H]1C(=O)N1CCC[C@H]1C(=O)N[C@@H](CO)C(N)=O)C(C)C [Example 7] | > 961 | 0.193
